This is an account of results in US8071598B2, “3,9-diazabicyclo[3.3.1]nonane derivatives and their use as monoamine neurotransmitter re-uptake inhibitors” (Neurosearch A/S, priority 2006, dated 2011).

SMILES strings stand for the structures. Where a name gives a salt, the structure may show the parent alone. Read-outs that look alike come from different tables or passages of the source.

The target of series [1] is T1, reuptake of dopamine (DA) in synaptosomes (Rattus norvegicus, UniProt P23977).
T1 construct: in synaptosomes as described in WO 97/16451; from tissue; host or cells: synaptosomes (brain tissue)
T1 sequence (P23977 whole entry): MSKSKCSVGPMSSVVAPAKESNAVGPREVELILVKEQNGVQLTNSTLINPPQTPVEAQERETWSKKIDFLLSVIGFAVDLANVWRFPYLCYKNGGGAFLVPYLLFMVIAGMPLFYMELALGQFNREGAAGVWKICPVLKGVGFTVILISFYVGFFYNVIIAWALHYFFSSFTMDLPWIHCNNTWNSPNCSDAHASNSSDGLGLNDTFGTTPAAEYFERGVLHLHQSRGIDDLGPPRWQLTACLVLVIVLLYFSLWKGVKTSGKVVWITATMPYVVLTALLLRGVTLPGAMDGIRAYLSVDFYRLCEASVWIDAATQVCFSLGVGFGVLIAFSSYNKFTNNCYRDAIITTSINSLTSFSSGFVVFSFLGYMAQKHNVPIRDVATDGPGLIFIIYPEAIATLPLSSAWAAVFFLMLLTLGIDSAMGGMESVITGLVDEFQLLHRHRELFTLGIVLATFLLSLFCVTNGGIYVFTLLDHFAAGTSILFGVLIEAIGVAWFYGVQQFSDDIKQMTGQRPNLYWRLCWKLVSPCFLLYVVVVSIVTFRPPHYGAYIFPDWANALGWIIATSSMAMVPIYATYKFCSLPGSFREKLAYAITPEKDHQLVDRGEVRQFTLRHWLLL
Briefly: Inhibition of dopamine (DA) reuptake in synaptosomes. It counts as biochemical.

In series [2] the target is T2, reuptake of noradrenaline (NA) in synaptosomes (Rattus norvegicus, UniProt Q63380).
T2 construct: in synaptosomes as described in WO 97/16451; from tissue; host or cells: synaptosomes (brain tissue)
T2 sequence (Q63380 1-617): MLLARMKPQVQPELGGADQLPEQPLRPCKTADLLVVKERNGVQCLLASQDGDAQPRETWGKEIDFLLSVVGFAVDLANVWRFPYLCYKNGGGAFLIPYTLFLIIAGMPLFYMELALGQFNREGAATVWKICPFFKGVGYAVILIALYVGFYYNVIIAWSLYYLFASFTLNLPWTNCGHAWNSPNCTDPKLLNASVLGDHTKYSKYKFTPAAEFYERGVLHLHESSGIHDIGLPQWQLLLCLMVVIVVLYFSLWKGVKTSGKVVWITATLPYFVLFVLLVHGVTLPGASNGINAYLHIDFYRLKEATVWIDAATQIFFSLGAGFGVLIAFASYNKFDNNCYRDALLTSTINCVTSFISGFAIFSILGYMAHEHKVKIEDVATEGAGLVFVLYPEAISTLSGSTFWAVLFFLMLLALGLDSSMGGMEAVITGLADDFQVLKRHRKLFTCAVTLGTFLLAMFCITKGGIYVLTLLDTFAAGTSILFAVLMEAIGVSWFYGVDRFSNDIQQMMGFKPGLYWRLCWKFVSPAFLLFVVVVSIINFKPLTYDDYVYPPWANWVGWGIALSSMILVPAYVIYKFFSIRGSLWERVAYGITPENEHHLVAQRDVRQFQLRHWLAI
Description: Inhibition of noradrenaline (NA) reuptake in synaptosomes. It is filed as biochemical.

Series [3] addresses T3, reuptake of serotonine (5-HT) in synaptosomes (Rattus norvegicus, UniProt P31652).
T3 construct: in synaptosomes as described in WO 97/16451; from tissue; host or cells: synaptosomes (brain tissue)
Briefly: Inhibition of serotonine (5-HT) reuptake in synaptosomes. It is filed as biochemical. Here is the method: A number of compounds were tested for their ability to inhibit the reuptake of the monoamine neurotransmitters dopamine (DA) noradrenaline (NA) and serotonine (5-HT) in synaptosomes as described in WO 97/16451.
The test values are given as IC50 (the concentration (μM) of the test substance which inhibits the specific binding of ^3H-DA, ^3H-NA, or ^3H-5-HT by 50%).

T3 sequence (P31652 whole entry): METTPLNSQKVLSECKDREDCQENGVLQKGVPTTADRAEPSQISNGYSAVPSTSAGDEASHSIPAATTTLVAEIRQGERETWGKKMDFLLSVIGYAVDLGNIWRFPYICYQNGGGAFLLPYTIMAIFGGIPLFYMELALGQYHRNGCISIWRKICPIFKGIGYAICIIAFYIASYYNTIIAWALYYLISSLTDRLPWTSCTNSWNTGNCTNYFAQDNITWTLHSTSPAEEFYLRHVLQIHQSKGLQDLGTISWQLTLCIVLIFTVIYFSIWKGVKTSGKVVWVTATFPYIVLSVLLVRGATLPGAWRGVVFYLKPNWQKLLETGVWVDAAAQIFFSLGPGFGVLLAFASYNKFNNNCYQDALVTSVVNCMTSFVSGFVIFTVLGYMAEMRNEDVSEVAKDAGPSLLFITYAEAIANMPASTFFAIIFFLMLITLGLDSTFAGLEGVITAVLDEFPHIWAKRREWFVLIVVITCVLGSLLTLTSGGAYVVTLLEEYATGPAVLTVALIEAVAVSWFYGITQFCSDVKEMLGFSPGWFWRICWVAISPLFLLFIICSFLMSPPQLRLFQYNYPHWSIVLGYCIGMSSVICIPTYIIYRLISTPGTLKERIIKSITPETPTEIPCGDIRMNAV

In general, melting point refers to the temperature of the solid-liquid transition. Consider `COc1ccc2cc(N3CC4CCCC(C3)N4C)ccc2c1` (as salt: fumaric acid salt) [1st compound of Method C, 3-(6-Methoxy-naphthalen-2-yl)-9-methyl-3,9-diaza-bicyclo[3.3.1]nonane], for which the melting point fell in the range of 190 to 198.3 °C.

Regarding `Clc1ccc(N2CC3CCCC(C2)N3)cc1Cl` (as salt: hydrochloric acid salt) [1st compound of Method B, 3-(3,4-Dichloro-phenyl)-3,9-diaza-bicyclo[3.3.1]nonane], the melting point was found to be 295.4 °C.

As a reminder, the IC50 is the point on the concentration scale where inhibition reaches its midpoint. As for `Clc1ccc(N2CC3CCCC(C2)N3)cc1Cl` [1st compound of Method B, 3-(3,4-Dichloro-phenyl)-3,9-diaza-bicyclo[3.3.1]nonane], the IC50 was determined as 160 nM in series [1], 7.4 nM in series [2] and 0.69 nM in series [3].

For the compound `COc1ccc2cc(N3CC4CCCC(C3)N4C)ccc2c1` [1st compound of Method C, 3-(6-Methoxy-naphthalen-2-yl)-9-methyl-3,9-diaza-bicyclo[3.3.1]nonane], the IC50 in series [1] (synaptosomes, 3H-DA, read-out: DA-uptake IC50) came out at 230 nM; in series [2], 19 nM; in series [3] it was 8.1 nM.

Consider `CN1C2CCCC1CN(c1ccc3cc(O)ccc3c1)C2` [3rd compound of Method C, 6-(9-Methyl-3,9-diaza-bicyclo[3.3.1]non-3-yl)-naphthalen-2-ol], for which the IC50 is 54 nM in series [1]; 110 nM in series [2] (synaptosomes, 3H-NA, read-out: NA-uptake IC50); 7.9 nM in series [3].
